Test results published in patent US12582638B2, “Pharmaceutical composition for treating cancer, containing mTOR-signaling inhibitor as active ingredient” (KOREA ADVANCED INSTITUTE OF SCIENCE AND TECHNOLOGY, priority 2020, dated 2026).

What was measured:
A375 = assay: Cell viability, CellTiterGlo, 72 hours; format: cell-based; settings: Homo sapiens, A-375, A375 cells, Skin
Experimental: (§1) In addition to the colorectal cells, 120 cancer cell lines treated with various concentrations of lomitapide were assayed for viability. To analyze cell viability, the cells were incubated with lomitapide at 37° C. for 72 hours in a 5% or 10% CO2 atmosphere and then equilibrated at room temperature for 1 hour, followed by addition of CellTiterGlo reagent (Promega). One hour later, luminescence was measured to calculate cell viability (%). The 120 cell lines were purchased from ATCC (American Type Culture Collection, Virginia, USA).

A498 = assay: Cell viability, CellTiterGlo, 72 hours; format: cell-based; settings: Homo sapiens, A498 cells, Kidney
Experimental: as §1

COR-L279 = assay: Cell viability, CellTiterGlo, 72 hours; format: cell-based; settings: Homo sapiens, COR-L279 cells, Lung
Experimental: as §1

Caki-2 = assay: Cell viability, CellTiterGlo, 72 hours; format: cell-based; settings: Homo sapiens, Caki-2 cells, Kidney
Experimental: as §1

DU-145 = assay: Cell viability, CellTiterGlo, 72 hours; format: cell-based; settings: Homo sapiens, DU-145 cells, Prostate
Experimental: as §1

H460 = assay: Cell viability, CellTiterGlo, 72 hours; format: cell-based; settings: Homo sapiens, NCI-H460, H460 cells, Lung
Experimental: as §1

H4 = assay: Cell viability, CellTiterGlo, 72 hours; format: cell-based; settings: H4 cells, Brain
Experimental: as §1

HEC-1-A = assay: Cell viability, CellTiterGlo, 72 hours; format: cell-based; settings: Homo sapiens, HEC-1-A cells, Endometrium
Experimental: as §1

Hs 746T = assay: Cell viability, CellTiterGlo, 72 hours; format: cell-based; settings: Homo sapiens, Hs746T, Hs 746T cells, Stomach
Experimental: as §1

Jurkat = assay: Cell viability, CellTiterGlo, 72 hours; format: cell-based; settings: Homo sapiens, Jurkat cells, Blood
Experimental: as §1

LN229 = assay: Cell viability, CellTiterGlo, 72 hours; format: cell-based; settings: Homo sapiens, LN-229, LN229 cells, Brain
Experimental: as §1

LP-1 = assay: Cell viability, CellTiterGlo, 72 hours; format: cell-based; settings: Homo sapiens, LP-1 cells, Blood
Experimental: as §1

MCAS = assay: Cell viability, CellTiterGlo, 72 hours; format: cell-based; settings: MCAS cells, Ovary
Experimental: as §1

MEC-1 = assay: Cell viability, CellTiterGlo, 72 hours; format: cell-based; settings: Homo sapiens, MEC1, MEC-1 cells, Blood
Experimental: as §1

NCI-H2110 = assay: Cell viability, CellTiterGlo, 72 hours; format: cell-based; settings: NCI-H2110 cells, Lung
Experimental: as §1

OCI-AML5 = assay: Cell viability, CellTiterGlo, 72 hours; format: cell-based; settings: Homo sapiens, OCI-AML-5, OCI-AML5 cells, Blood
Experimental: as §1

SCLC-21H = assay: Cell viability, CellTiterGlo, 72 hours; format: cell-based; settings: Homo sapiens, SCLC-21H cells, Lung
Experimental: as §1

SJSA-1 = assay: Cell viability, CellTiterGlo, 72 hours; format: cell-based; settings: Homo sapiens, SJSA-1 cells, Bone
Experimental: as §1

SK-MEL-3 = assay: Cell viability, CellTiterGlo, 72 hours; format: cell-based; settings: Homo sapiens, SK-MEL3, SK-MEL-3 cells, Skin
Experimental: as §1

SNU840 = assay: Cell viability, CellTiterGlo, 72 hours; format: cell-based; settings: SNU-840, SNU840 cells, Ovary
Experimental: as §1

Saos-2 EC = assay: Cell viability, CellTiterGlo, 72 hours; format: cell-based; settings: Homo sapiens, Saos-2 EC cells, Bone
Experimental: as §1

U-937 = assay: Cell viability, CellTiterGlo, 72 hours; format: cell-based; settings: Homo sapiens, U-937 cells, Blood
Experimental: as §1

U2OS = assay: Cell viability, CellTiterGlo, 72 hours; format: cell-based; settings: Homo sapiens, U2OS cells, Bone
Experimental: as §1

SW480 = assay: Viability assay for lomitapide-treated colorectal cells (CellTiter-Glo, 24); format: cell-based, human; settings: 0, 1, 2, 5, and 10 μM, dose-dependent
Experimental: NCM460, HCT116, HT29, and SW480 cell lines were each seeded at a density of 10^4 cells/well into 96-well plates and incubated 37° C. for 24 hours before treatment with various concentrations (0, 1, 2, 5, and 10 μM) of lomitapide (Sigma Aldrich, Missouri, USA). After treatment of the cells with lomitapide at 37° C. for 24 in a 5% CO2 atmosphere, 100 μL of an assay reagent (CellTiter-Glo® Reagent) was added to each well. Then, luminescence was read using VICTOR X Multilabel Reader (PerkinElmer, Massachusetts, USA) and used to calculate cell viability (%). Results are depicted in FIGS. 2 to 4.

p-S6K, p-S6, LC3 [1] = assay: Cell signaling assay, western blot, MDA-MB-468; format: cell-based, human; settings: 0, 5, and 10 μM, FIG. 7d
Experimental: (§2) Cells treated with various concentrations (0, 5, and 10 μM) of lomitapide were lysed with RIPA buffer containing a protease-inhibitor cocktail. The whole-cell lysate was incubated on ice for 30 minutes. After centrifugation at 4° C. and 13,300×g for 15 minutes, the supernatant was collected. For use as controls, HCT116, SW480, HT29, MDA-MB-231, and MDA-MB-468 cells were treated with 1 μM of torin, known as an mTOR inhibitor.
For western blot analysis, the supernatant was loaded onto 10% SDS-PAGE gel. The separated proteins were blotted onto a PVDF membrane. Then, the blots were incubated with antibodies at 4° C. for 12 hours as follows (Table 2).
(§3) Then, the blots were washed with TBST (a mixture of tris-buffered saline (TBS) and Tween 20), incubated with horseradish peroxidase-conjugated secondary antibody (Cell signaling) at 37° C. for 1 hour, and washed, followed by detecting enhanced chemiluminescence (ECL; Amersham).

p-S6K, p-S6, LC3 [2] = assay: Cell signaling assay, western blot, SNU2; format: cell-based, human; settings: 0, 5, and 10 μM, FIG. 7g
Experimental: as §2, with “concentration” for “concentrations”, “controls,” for “controls, HCT116, SW480, HT29, MDA-MB-231, and MDA-MB-468”
For western blot analysis, the supernatant was loaded onto 10% SDS-PAGE gel. The separated proteins were blotted onto a PVDF membrane. Then, the blots were incubated with antibodies at 4° C. for 12 hours as follows (Table 3).
as §3

O=C(NC1CCN(CCCCC2(C(=O)NCC(F)(F)F)c3ccccc3-c3ccccc32)CC1)c1ccccc1-c1ccc(C(F)(F)F)cc1 [lomitapide, N-(2,2,2-trifluoroethyl)-9-[4-[4-[[[4′-(trifluoromethyl)[1,1′-biphenyl]2-yl]carbonyl]amino]-1-piperidinyl]butyl]-9H-fluoren-9-carboxamide]
IC50 (A375): 1800 nM
IC50 (A498): 2900 nM
IC50 (COR-L279): 2700 nM
IC50 (Caki-2): 2800 nM
IC50 (DU-145): 5000 nM
IC50 (H460): 3800 nM
IC50 (H4): 4600 nM
IC50 (HEC-1-A): 4900 nM
IC50 (Hs 746T): 2500 nM
IC50 (Jurkat): 3000 nM
IC50 (LN229): 2700 nM
IC50 (LP-1): 5400 nM
IC50 (MCAS): 4500 nM
IC50 (MEC-1): 3300 nM
IC50 (NCI-H2110): 3300 nM
IC50 (OCI-AML5): 2700 nM
IC50 (SCLC-21H): 3000 nM
IC50 (SJSA-1): 3100 nM
IC50 (SK-MEL-3): 1600 nM
IC50 (SNU840): 2300 nM
IC50 (Saos-2 EC): 3600 nM
IC50 (U-937): 2300 nM
IC50 (U2OS): 2800 nM
cell viability (SW480): reduced the viability
conversion from LC3I into LC3II (p-S6K, p-S6, LC3 [1]): increased induction of conversion from LC3I into LC3II
phosphorylation levels of target proteins (p-S6K and p-S6) (p-S6K, p-S6, LC3 [1]): remarkably decreased phosphorylation levels
conversion from LC3I into LC3II (p-S6K, p-S6, LC3 [2]): increased induction of conversion from LC3I into LC3II
phosphorylation levels of target proteins (p-S6K, p-S6) (p-S6K, p-S6, LC3 [2]; dose-dependent): remarkably decreased phosphorylation levels
